Results published in PubChem BioAssay (NCI).
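Cells were grown in 96-well plates and exposed to each compound for 48 hours at five concentrations; endpoints were interpolated linearly between bracketing concentrations, or set to the highest concentration if not reached. GI50 marks 50% less growth. TGI is the concentration that stops growth completely.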

How the values were obtained:
Experiment in all cases: inhibition of tumour cell growth, NCI panel, 48 h
[1] = test system: HCC-2998 colon
[2] = test system: HL-60(TB) leukemia
[3] = test system: HT29 colon
[4] = test system: MALME-3M melanoma
[5] = test system: OVCAR-4 ovarian
[6] = test system: RPMI-8226 leukemia
[7] = test system: SF-539 CNS
[8] = test system: MOLT-4 leukemia
[9] = test system: SR leukemia
[10] = test system: MDA-MB-231 breast

SMILES	TGI [1] [µM]	TGI [2] [µM]	TGI [3] [µM]	TGI [4] [µM]	TGI [5] [µM]	TGI [6] [µM]	TGI [7] [µM]	TGI [8] [µM]	TGI [9] [µM]	GI50 [1] [µM]	GI50 [2] [µM]	GI50 [3] [µM]	GI50 [4] [µM]	GI50 [10] [µM]	TGI [10] [µM]	GI50 [8] [µM]	GI50 [5] [µM]	GI50 [7] [µM]	GI50 [6] [µM]
C/C(=N/Nc1ccc([N+](=O)[O-])cc1[N+](=O)[O-])C(CC(C(=O)Nc1ccccc1C)/C(C)=N\Nc1ccc([N+](=O)[O-])cc1[N+](=O)[O-])C(=O)Nc1ccccc1C (stereo unspecified)	60.8	> 100	28	> 63.1	15.9	> 69.3	25.8												
CCOC(=N)CC(=O)NC(C)c1ccccc1 (stereo unspecified)	> 100	> 100	> 100	> 100	> 100		> 100	> 100	> 100										
O=C(OCc1nc2ccc(Br)cc2c(=O)n1-c1ccccc1)c1ccccc1O	> 100	> 100	> 100	> 100	> 100	> 100	> 100	> 100											
Nc1ncnc2c1ncn2Cc1ccc(C23CC4CC(CC(C4)C2)C3)c(O)c1	82.1	> 100	> 100	> 100	8.66		75.1	> 100		12.4	5.06	15.1	12.6	13.6	63.1	6.72	2.71	23.4	
O=[N+]([O-])O.[NH-]C1CCCCC1[NH-].[NH-]C1CCCCC1[NH-].[NH-]C1CCCCC1[NH-].[OH-].[OH-].[OH-].[Pt+4].[Pt+4].[Pt+4] (stereo unspecified)	19	4.01		2.7	> 100	> 24.2	> 68.8	2.2		2.09	1.09	0.0889	0.199	4.01	> 64.4	0.0283		1.31	0.0311
C/C(=N\NC(=S)N1CCC(C2CCN(C(=S)N/N=C(\C)c3ccccn3)CC2)CC1)c1ccccn1	> 100	> 100	> 100	> 100	> 100	> 100	> 100												
O=C1CC2Sc3ccccc3N=C2N1c1ccc(Cl)cc1Cl (stereo unspecified)	> 100	72.1	> 100	> 100	> 100	> 100		> 100											
CN1c2ccccc2C(=O)Nc2cnc(Cl)nc21	> 100	> 100	> 100	> 100	> 100	> 100	> 100	> 100							> 100				
CC1SC2(CCCCC2)N(NC(=O)c2[nH]c3ccc(F)cc3c2-c2ccccc2)C1=O (stereo unspecified)	> 100		> 100	> 100	> 100	> 100	> 100	> 100		> 100		> 100	26.1	31	> 100	> 100	41.6	> 100	41.2
COC(=O)C(=O)C(C(=O)C(=O)Nc1ccccc1C(N)=O)c1nc2ccc(C(=O)c3ccccc3)cc2[nH]c1=O (stereo unspecified)	> 100		> 100	> 100	> 100	> 100	> 100	> 100	> 100										
COc1ccccc1NC(=O)C(=O)C1C(=O)Nc2ccccc2S1=O (stereo unspecified)	> 100	> 100	> 100	> 100	> 100		> 100	> 100	> 100										
COc1ncnc2c(-c3ccco3)cn(COCc3ccccc3)c12	> 50	> 50	> 50	> 50	> 50	> 50	> 50			> 50	> 50	> 50	> 50	> 50	> 50		> 50	> 50	4.87
COc1cc(/C=C\c2cccnc2Nc2ccccc2)cc(OC)c1OC	> 100	36.7	98.3	87.4	> 100	34.8	> 100	46.2		7.74	8	5.51	15.3	12.6	> 100	6.72	9.78	12.2	6.83
CCN1CC2(C)CC[C@@H](OC)C34[C@@H]2[C@H](OC(C)=O)C2(OCO[C@@]25C[C@H](OC)C2C[C@]3(O)[C@@H]5[C@H]2O)[C@H]14	> 100	> 100	> 100	> 100	> 100		> 100		> 100										
